Values of other authors in patent US12611399B2, “Movement disorders” (Definium Therapeutics US, Inc., priority 2021, dated 2026).

What was measured:
Settings in all cases: result in words
D1-3 receptors = system: D1-3 receptors
[1] = system: serotonin 5-HT1 receptors
5-HT transporter (SERT) = 5-HT transporter (SERT) (Homo sapiens, UniProt P31645)
5-HT2A receptor = 5-HT2A receptor (Homo sapiens, UniProt P28223)
D2 receptors = D2 receptors (Homo sapiens, UniProt P14416)
Sequence of D2 receptors (P14416 whole entry): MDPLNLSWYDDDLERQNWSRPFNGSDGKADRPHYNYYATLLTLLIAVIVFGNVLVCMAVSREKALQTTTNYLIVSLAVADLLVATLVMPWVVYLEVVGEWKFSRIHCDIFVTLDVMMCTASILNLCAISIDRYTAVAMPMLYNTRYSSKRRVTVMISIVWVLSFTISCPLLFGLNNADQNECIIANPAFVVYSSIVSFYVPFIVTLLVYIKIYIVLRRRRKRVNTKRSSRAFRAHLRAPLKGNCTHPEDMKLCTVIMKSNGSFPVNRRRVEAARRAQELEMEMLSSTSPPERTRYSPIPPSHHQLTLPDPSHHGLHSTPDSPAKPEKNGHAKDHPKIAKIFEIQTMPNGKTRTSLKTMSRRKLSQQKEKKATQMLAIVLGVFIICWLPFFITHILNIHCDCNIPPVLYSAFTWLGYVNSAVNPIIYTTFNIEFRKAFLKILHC

Sequence of 5-HT transporter (SERT) (P31645 whole entry, species assumed): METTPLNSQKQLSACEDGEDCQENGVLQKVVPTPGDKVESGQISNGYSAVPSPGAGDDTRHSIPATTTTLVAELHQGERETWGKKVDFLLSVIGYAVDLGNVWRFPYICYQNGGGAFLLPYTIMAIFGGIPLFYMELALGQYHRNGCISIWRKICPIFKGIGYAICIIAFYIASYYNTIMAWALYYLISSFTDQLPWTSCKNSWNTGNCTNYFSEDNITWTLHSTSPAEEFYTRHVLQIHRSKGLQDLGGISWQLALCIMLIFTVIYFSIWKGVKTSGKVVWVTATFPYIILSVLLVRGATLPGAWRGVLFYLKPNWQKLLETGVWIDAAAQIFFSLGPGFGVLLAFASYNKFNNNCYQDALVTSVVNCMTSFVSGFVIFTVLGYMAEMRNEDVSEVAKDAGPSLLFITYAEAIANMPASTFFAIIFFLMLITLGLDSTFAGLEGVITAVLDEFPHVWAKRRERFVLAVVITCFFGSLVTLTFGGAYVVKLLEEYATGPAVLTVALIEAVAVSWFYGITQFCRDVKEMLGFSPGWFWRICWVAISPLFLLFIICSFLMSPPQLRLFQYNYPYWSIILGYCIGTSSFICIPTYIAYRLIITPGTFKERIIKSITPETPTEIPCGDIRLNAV
Sequence of 5-HT2A receptor (P28223 whole entry): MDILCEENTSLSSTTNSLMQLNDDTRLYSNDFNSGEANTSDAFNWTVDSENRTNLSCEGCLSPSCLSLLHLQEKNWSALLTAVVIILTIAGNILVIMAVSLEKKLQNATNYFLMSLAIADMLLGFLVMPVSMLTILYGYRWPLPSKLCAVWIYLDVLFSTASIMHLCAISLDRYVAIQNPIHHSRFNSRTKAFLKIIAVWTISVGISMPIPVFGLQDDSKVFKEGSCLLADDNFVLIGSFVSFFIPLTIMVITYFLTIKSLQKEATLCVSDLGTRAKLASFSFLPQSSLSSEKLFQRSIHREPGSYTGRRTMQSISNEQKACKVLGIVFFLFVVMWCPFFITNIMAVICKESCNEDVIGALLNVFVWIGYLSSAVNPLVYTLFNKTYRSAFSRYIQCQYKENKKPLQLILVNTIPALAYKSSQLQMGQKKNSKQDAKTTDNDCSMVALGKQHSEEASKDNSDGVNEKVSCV

Compound	stimulation of D1-3 receptors (D1-3 receptors)	agonist potency at serotonin 5-HT1 receptors [1]	interaction with the 5-HT transporter (SERT) (5-HT transporter (SERT))	stimulation of the 5-HT2A receptor (5-HT2A receptor)	affinity for D2 receptors (D2 receptors)
CCN(CC)C(=O)[C@@H]1C=C2c3cccc4[nH]cc(c34)C[C@H]2N(C)C1 [LSD, lysergic acid diethylamide]	stimulates	potent agoinsts	does not interact	potently stimulates	
COc1cc(CCN)cc(OC)c1OC [mescaline]		low potency			no affinity
CN(C)CCc1c[nH]c2cccc(O)c12 [psilocin]		potent agoinsts	inhibits		
